Source: ChEMBL document CHEMBL1132501, “Synthesis and anti-Helicobacter pylori activity of FR182024, a new cephem derivative” (1999)
Values after ≈ are worked out from the molar mass of the structure shown.

Assays:
Format in all cases: functional
[1] = system: Helicobacter pylori; assay: The compound was evaluated in vitro for the minimum inhibitory concentration against Helicobacter pylori (13001).
[2] = system: Helicobacter pylori; assay: The compound was evaluated in vitro for the minimum inhibitory concentration against Helicobacter pylori (16021).
[3] = system: Helicobacter pylori; assay: The compound was evaluated in vitro for the minimum inhibitory concentration against Helicobacter pylori (9005).
[4] = system: Helicobacter pylori; assay: The compound was evaluated in vitro for the minimum inhibitory concentration against Helicobacter pylori (FP1757).
[5] = system: Mus musculus; assay: The compound was evaluated in vivo for the therapeutic efficacy at 0.1 mg/kg in mouse infection model; 5/8
[6] = system: Mus musculus; assay: The compound was evaluated in vivo for the therapeutic efficacy at 0.32 mg/kg in mouse infection model; 8/8
[7] = system: Mus musculus; assay: The compound was evaluated in vivo for the therapeutic efficacy at 0.1 mg/kg in mouse infection model; 0/8
[8] = system: Mus musculus; assay: The compound was evaluated in vivo for the therapeutic efficacy at 0.32 mg/kg in mouse infection model; 1/8
[9] = system: Mus musculus; assay: The compound was evaluated in vivo for the therapeutic efficacy at 1.0 mg/kg in mouse infection model; 3/8
[10] = system: Mus musculus; assay: The compound was evaluated in vivo for the therapeutic efficacy at 3.2 mg/kg in mouse infection model; 7/8
[11] = system: Mus musculus; assay: The compound was evaluated in vivo for the therapeutic efficacy at 0.32 mg/kg in mouse infection model; 0/8
[12] = system: Mus musculus; assay: The compound was evaluated in vivo for the therapeutic efficacy at 3.2 mg/kg in mouse infection model; 0/8
[13] = system: Mus musculus; assay: The compound was evaluated in vivo for the therapeutic efficacy at 1.0 mg/kg in mouse infection model; 0/8

MIC [1] [µg/mL] | MIC [2] [µg/mL] | MIC [3] [µg/mL] | MIC [4] [µg/mL] | SMILES | Therapeutic efficacy [5] | Therapeutic efficacy [6] | Therapeutic efficacy [7] | Therapeutic efficacy [8] | Therapeutic efficacy [9] | Therapeutic efficacy [10] | Therapeutic efficacy [11] | Therapeutic efficacy [12] | Therapeutic efficacy [13]
0.00078 (≈ 0.00174 µM) | 0.0016 (≈ 0.00357 µM) | 0.00625 (≈ 0.0139 µM) | 0.00156 (≈ 0.00348 µM) | Cc1nnc(SC2=C(C(=O)O)N3C(=O)[C@@H](NC(=O)Cc4ccccc4)[C@H]3SC2)s1 | 5 | 8 | – | – | – | – | – | – | –
0.05 (≈ 0.0668 µM) | 50 (≈ 66.8 µM) | 0.2 (≈ 0.267 µM) | 0.1 (≈ 0.134 µM) | CC[C@H]1OC(=O)[C@H](C)[C@@H](O[C@H]2C[C@@](C)(OC)[C@@H](O)[C@H](C)O2)[C@H](C)[C@@H](O[C@@H]2O[C@H](C)C[C@H](N(C)C)[C@H]2O)[C@](C)(OC)C[C@@H](C)C(=O)[C@H](C)[C@@H](O)[C@]1(C)O [CLARITHROMYCIN] | – | – | – | – | – | – | 0 | 0 | 0

SMILES | MIC [1] [µg/mL] | MIC [2] [µg/mL] | MIC [3] [µg/mL] | MIC [4] [µg/mL] | Therapeutic efficacy [5] | Therapeutic efficacy [6] | Therapeutic efficacy [7] | Therapeutic efficacy [8] | Therapeutic efficacy [9] | Therapeutic efficacy [10] | Therapeutic efficacy [11] | Therapeutic efficacy [12] | Therapeutic efficacy [13]
CC1(C)S[C@@H]2[C@H](NC(=O)[C@H](N)c3ccc(O)cc3)C(=O)N2C1C(=O)O (single isomer, unassigned) [AMOXICILLIN] | 0.025 (≈ 0.0684 µM) | 0.025 (≈ 0.0684 µM) | 0.05 (≈ 0.137 µM) | 0.0125 (≈ 0.0342 µM) | – | – | 0 | 1 | 3 | 7 | – | – | –
